Patent publication US20180370927A1, “MICROBIOCIDAL OXADIAZOLE DERIVATIVES” (SYNGENTA PARTICIPATIONS AG, priority 2015, published 2018)

How the values were obtained:
[1] = test system: Puccinia recondita f. Sp. Tritici; test: Puccinia recondita f. sp. tritici / wheat / leaf disc preventative (brown rust); type: in vivo; settings: foliar, 200 ppm in the applied formulation, wheat leaf segments, preventative, assessed 7 to 9 days after application, read-out: disease control compared to untreated control leaf disks
Outline: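 Wheat cv. Kanzler leaf segments on agar sprayed with formulated compound in water, inoculated with rust spores 1 day later. Incubated at 19° C, 75% rh, 12 h light/12 h dark; percent disease control versus untreated scored 7 to 9 days after application; tested at 200 ppm.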

Phakopsora pachyrhizi = Phakopsora pachyrhizi / soybean / leaf disc preventative (Asian soybean rust); type: in vivo; settings: foliar, 200 ppm in the applied formulation, soybean leaf disks, assessed 12 to 14 days after application, read-out: disease control compared to untreated control leaf disks
Protocol: Leaf disks or leaf segments of various plant species are cut from plants grown in a greenhouse. The cut leaf disks or segments are placed in multiwell plates (24-well format) onto water agar. The leaf disks are sprayed with a test solution before (preventative) or after (curative) inoculation. Compounds to be tested are prepared as DMSO solutions (max. 10 mg/mL) which are diluted to the appropriate concentration with 0.025% Tween20 just before spraying. The inoculated leaf disks or segments are incubated under defined conditions (temperature, relative humidity, light, etc.) according to the respective test system. A single evaluation of disease level is carried out 3 to 14 days after inoculation, depending on the pathosystem. Percent disease control relative to the untreated check leaf disks or segments is then calculated.
Example 3: Fungicidal Activity Against Phakopsora pachyrhizi/Soybean/Leaf Disc Preventative (Asian Soybean Rust)
Soybean leaf disks are placed on water agar in multiwell plates (24-well format) and sprayed with the formulated test compound diluted in water. One day after application leaf discs are inoculated by spraying a spore suspension on the lower leaf surface. After an incubation period in a climate cabinet of 24-36 hours in darkness at 20° C. and 75% relative humidity leaf disc are kept at 20° C. with 12 hours light/day and 75% relative humidity. The activity of a compound is assessed as percent disease control compared to untreated when an appropriate level of disease damage appears in untreated check leaf disks (12 to 14 days after application).
The following compounds at 200 ppm in the applied formulation give at least 80% disease control in this test when compared to untreated control leaf disks under the same conditions, which show extensive disease development.

[2] = test system: Glomerella lacenarium (Colletotrichum lacenarium); test: Glomerella lacenarium (Colletotrichum lacenarium) liquid culture / cucumber / preventative (anthracnose); type: cell-based; settings: 20 ppm in the applied formulation, liquid culture in PDB, 24° C., 3 to 4 days after application, read-out: disease control (inhibition of growth, photometric) compared to untreated control
Outline: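 Cryostored conidia in potato dextrose broth added to DMSO compound solution in microtiter plates, incubated at 24° C. Growth inhibition read photometrically 3 to 4 days after application, as percent control versus untreated check; compounds tested at 20 ppm.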

[3] = test system: Puccinia recondita f. Sp. Tritici; test: Puccinia recondita f. sp. tritici / wheat / leaf disc curative (brown rust); type: in vivo; settings: foliar, 200 ppm in the applied formulation, wheat leaf segments, curative (applied 1 day after inoculation), assessed 6 to 8 days after application, read-out: disease control compared to untreated control leaf disks
Outline: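 Wheat cv. Kanzler leaf segments on agar were inoculated with spores, kept dark at 19° C, 75% RH, then sprayed with diluted formulated compound 1 day after inoculation (curative). Incubation continued at 19° C, 75% RH, 12 h light/12 h dark, with percent disease control versus untreated scored 6 to 8 days after application.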

CCC(=O)C(=O)N(Cc1ccc(-c2noc(C(F)(F)F)n2)cc1)C(C)C [Compound 1.32]
≥ 80%: pest or weed control at 200 ppm [1] | pest or weed control at 200 ppm (Phakopsora pachyrhizi) | inhibition at 20 ppm [2] | pest or weed control at 200 ppm [3]

CC(=O)C(=O)N(Cc1ccc(-c2noc(C(F)(F)F)n2)cc1)C1CC1 [Compound 1.91, N-cyclopropyl-2-oxo-N-[[4-[5-(trifluoromethyl)-1,2,4-oxadiazol-3-yl]phenyl]methyl]propanamide]
≥ 80%: pest or weed control at 200 ppm [1] | pest or weed control at 200 ppm (Phakopsora pachyrhizi) | inhibition at 20 ppm [2] | pest or weed control at 200 ppm [3]

CCC(=O)C(=O)N(Cc1ccc(-c2noc(C(F)(F)F)n2)cc1F)OC [Compound 1.58, N-[[2-fluoro-4-[5-(trifluoromethyl)-1,2,4-oxadiazol-3-yl]phenyl]methyl]-N-methoxy-2-oxo-butanamide]
≥ 80%: pest or weed control at 200 ppm [1] | pest or weed control at 200 ppm (Phakopsora pachyrhizi) | inhibition at 20 ppm [2] | pest or weed control at 200 ppm [3]

CO/N=C(\C)C(=O)N(Cc1ccc(-c2noc(C(F)(F)F)n2)cc1)OC [Compound 2.10, (2E)-N-methoxy-2-methoxyimino-N-[[4-[5-(trifluoromethyl)-1,2,4-oxadiazol-3-yl]phenyl]methyl] propanamide]
≥ 80%: pest or weed control at 200 ppm [1] | pest or weed control at 200 ppm (Phakopsora pachyrhizi) | inhibition at 20 ppm [2] | pest or weed control at 200 ppm [3]

CC(C)(C)C(=O)C(=O)NCc1ccc(-c2noc(C(F)(F)F)n2)cc1F [Compound 1.40, N-[[2-fluoro-4-[5-(trifluoromethyl)-1,2,4-oxadiazol-3-yl]phenyl]methyl]-3,3-dimethyl-2-oxo-butanamide]
≥ 80%: pest or weed control at 200 ppm [1] | pest or weed control at 200 ppm (Phakopsora pachyrhizi) | inhibition at 20 ppm [2] | pest or weed control at 200 ppm [3]

O=C(NCc1ccc(-c2noc(C(F)(F)F)n2)cc1F)C(=O)c1ccccc1 [Compound 1.37, N-[[2-fluoro-4-[5-(trifluoromethyl)-1,2,4-oxadiazol-3-yl]phenyl]methyl]-2-oxo-2-phenyl-acetamide]
≥ 80%: pest or weed control at 200 ppm [1] | pest or weed control at 200 ppm (Phakopsora pachyrhizi) | inhibition at 20 ppm [2] | pest or weed control at 200 ppm [3]

O=C(NCc1ccc(-c2noc(C(F)(F)F)n2)cc1)C(=O)c1cccs1 [Compound 1.51, 2-oxo-2-(2-thienyl)-N-[[4-[5-(trifluoromethyl)-1,2,4-oxadiazol-3-yl]phenyl]methyl]acetamide]
≥ 80%: pest or weed control at 200 ppm [1] | pest or weed control at 200 ppm (Phakopsora pachyrhizi) | inhibition at 20 ppm [2] | pest or weed control at 200 ppm [3]

CON(C)C(=O)C(=O)N(Cc1ccc(-c2noc(C(F)(F)F)n2)cc1)OC [Compound 4.65, N,N′-dimethoxy-N-methyl-N′-[[4-[5-(trifluoromethyl)-1,2,4-oxadiazol-3-yl]phenyl]methyl] oxamide]
≥ 80%: pest or weed control at 200 ppm [1] | pest or weed control at 200 ppm (Phakopsora pachyrhizi) | inhibition at 20 ppm [2] | pest or weed control at 200 ppm [3]

CN(C)C(=O)C(=O)NCc1ccc(-c2noc(C(F)(F)F)n2)c(F)c1F [Compound 4.94, N-[[2,3-difluoro-4-[5-(trifluoromethyl)-1,2,4-oxadiazol-3-yl]phenyl]methyl]-N',N'-dimethyl-oxamide]
≥ 80%: pest or weed control at 200 ppm [1] | pest or weed control at 200 ppm (Phakopsora pachyrhizi) | inhibition at 20 ppm [2] | pest or weed control at 200 ppm [3]

CCN(Cc1ccc(-c2noc(C(F)(F)F)n2)cc1)C(=O)C(C)=O [Compound 1.18, N-ethyl-2-oxo-N-[[4-[5-(trifluoromethyl)-1,2,4-oxadiazol-3-yl]phenyl]methyl]propanamide]
≥ 80%: pest or weed control at 200 ppm [1] | pest or weed control at 200 ppm (Phakopsora pachyrhizi) | inhibition at 20 ppm [2] | pest or weed control at 200 ppm [3]

CN(C)C(=O)C(=O)N(C)Cc1ccc(-c2noc(C(F)(F)F)n2)cc1 [Compound 4.29, N,N,N′-trimethyl-N'-[[4-[5-(trifluoromethyl)-1,2,4-oxadiazol-3-yl]phenyl]methyl] oxamide]
≥ 80%: pest or weed control at 200 ppm [1] | pest or weed control at 200 ppm (Phakopsora pachyrhizi) | inhibition at 20 ppm [2] | pest or weed control at 200 ppm [3]

CCN(C)C(=O)C(=O)NCc1ccc(-c2noc(C(F)(F)F)n2)cc1 [Compound 4.54, N′-ethyl-N′-methyl-N-[[4-[5-(trifluoromethyl)-1,2,4-oxadiazol-3-yl]phenyl]methyl] oxamide]
≥ 80%: pest or weed control at 200 ppm [1] | pest or weed control at 200 ppm (Phakopsora pachyrhizi) | inhibition at 20 ppm [2] | pest or weed control at 200 ppm [3]

CON(Cc1ccc(-c2noc(C(F)(F)F)n2)cc1F)C(=O)C(=O)CC(C)C [Compound 1.55, N-[[2-fluoro-4-[5-(trifluoromethyl)-1,2,4-oxadiazol-3-yl]phenyl]methyl]-N-methoxy-4-methyl-2-oxo-pentanamide]
≥ 80%: pest or weed control at 200 ppm [1] | pest or weed control at 200 ppm (Phakopsora pachyrhizi) | inhibition at 20 ppm [2] | pest or weed control at 200 ppm [3]

CCN(C)C(=O)C(=O)N(Cc1ccc(-c2noc(C(F)(F)F)n2)cc1)OC [Compound 4.73, N-ethyl-N′-methoxy-N-methyl-N′-[[4-[5-(trifluoromethyl)-1,2,4-oxadiazol-3-yl]phenyl]methyl] oxamide]
≥ 80%: pest or weed control at 200 ppm [1] | pest or weed control at 200 ppm (Phakopsora pachyrhizi) | inhibition at 20 ppm [2] | pest or weed control at 200 ppm [3]

CON(Cc1ccc(-c2noc(C(F)(F)F)n2)cc1)C(=O)C(=O)CC(C)C [Compound 1.72, N-methoxy-4-methyl-2-oxo-N-[[4-[5-(trifluoromethyl)-1,2,4-oxadiazol-3-yl]phenyl]methyl]pentanamide]
≥ 80%: pest or weed control at 200 ppm [1] | pest or weed control at 200 ppm (Phakopsora pachyrhizi) | inhibition at 20 ppm [2] | pest or weed control at 200 ppm [3]

CC(C)(C)C(=O)C(=O)NCc1c(F)cc(-c2noc(C(F)(F)F)n2)cc1F [Compound 1.71, N-[[2,6-difluoro-4-[5-(trifluoromethyl)-1,2,4-oxadiazol-3-yl]phenyl]methyl]-3,3-dimethyl-2-oxo-butanamide]
≥ 80%: pest or weed control at 200 ppm [1] | pest or weed control at 200 ppm (Phakopsora pachyrhizi) | inhibition at 20 ppm [2] | pest or weed control at 200 ppm [3]

CC(C)(C)C(=O)C(=O)NCc1ccc(-c2noc(C(F)(F)F)n2)c(F)c1 [Compound 1.45, N-[[3-fluoro-4-[5-(trifluoromethyl)-1,2,4-oxadiazol-3-yl]phenyl]methyl]-3,3-dimethyl-2-oxo-butanamide]
≥ 80%: pest or weed control at 200 ppm [1] | pest or weed control at 200 ppm (Phakopsora pachyrhizi) | inhibition at 20 ppm [2] | pest or weed control at 200 ppm [3]

C=CCN(Cc1ccc(-c2noc(C(F)(F)F)n2)cc1)C(=O)C(=O)N(C)C [Compound 4.25, N′-allyl-N,N-dimethyl-N′-[[4-[5-(trifluoromethyl)-1,2,4-oxadiazol-3-yl]phenyl]methyl] oxamide]
≥ 80%: pest or weed control at 200 ppm [1] | pest or weed control at 200 ppm (Phakopsora pachyrhizi) | inhibition at 20 ppm [2] | pest or weed control at 200 ppm [3]

CCC(=O)C(=O)NCc1ccc(-c2noc(C(F)(F)F)n2)cc1Cl [Compound 1.64, N-[[2-chloro-4-[5-(trifluoromethyl)-1,2,4-oxadiazol-3-yl]phenyl]methyl]-2-oxo-butanamide]
≥ 80%: pest or weed control at 200 ppm [1] | pest or weed control at 200 ppm (Phakopsora pachyrhizi) | inhibition at 20 ppm [2] | pest or weed control at 200 ppm [3]

CN(C)C(=O)C(=O)NCc1ccc(-c2noc(C(F)(F)F)n2)cc1F [Compound 4.92, N-[[2-fluoro-4-[5-(trifluoromethyl)-1,2,4-oxadiazol-3-yl]phenyl]methyl]-N',N'-dimethyl-oxamide]
≥ 80%: pest or weed control at 200 ppm [1] | pest or weed control at 200 ppm (Phakopsora pachyrhizi) | inhibition at 20 ppm [2] | pest or weed control at 200 ppm [3]

CC(C)CC(=O)C(=O)NCc1ccc(-c2noc(C(F)(F)F)n2)c(F)c1F [Compound 1.47, N-[[2,3-difluoro-4-[5-(trifluoromethyl)-1,2,4-oxadiazol-3-yl]phenyl]methyl]-4-methyl-2-oxo-pentanamide]
≥ 80%: pest or weed control at 200 ppm [1] | pest or weed control at 200 ppm (Phakopsora pachyrhizi) | inhibition at 20 ppm [2] | pest or weed control at 200 ppm [3]
